# Measured values: PubChem BioAssay AID1259407 (Chemical Carcinogenesis Research Information System (CCRIS), 2018)
# Active and inactive are the calls of the source. No rule for the calls is given here.
# Test system: CCRIS mutagenicity, Ames/micronucleus/aberration tests
# Assay: CCRIS mutagenicity studies
# [1] = Test System: AMES SALMONELLA TYPHIMURIUM, Strain/Indicator: TA98, Metabolic Activation: HAMSTER, LIVER, S-9, AROCLOR 1254 (10%), Method: PREINCUBATION
# [2] = Test System: AMES SALMONELLA TYPHIMURIUM, Strain/Indicator: TA98, Metabolic Activation: NONE, Method: PREINCUBATION
# [3] = Test System: AMES SALMONELLA TYPHIMURIUM, Strain/Indicator: TA98, Metabolic Activation: RAT, LIVER, S-9, AROCLOR 1254 (10%), Method: PREINCUBATION
# [4] = Test System: AMES SALMONELLA TYPHIMURIUM, Strain/Indicator: TA100, Metabolic Activation: HAMSTER, LIVER, S-9, AROCLOR 1254 (10%), Method: PREINCUBATION
# [5] = Test System: AMES SALMONELLA TYPHIMURIUM, Strain/Indicator: TA100, Metabolic Activation: NONE, Method: PREINCUBATION
# [6] = Test System: AMES SALMONELLA TYPHIMURIUM, Strain/Indicator: TA100, Metabolic Activation: RAT, LIVER, S-9, AROCLOR 1254 (10%), Method: PREINCUBATION
# [7] = Test System: AMES SALMONELLA TYPHIMURIUM, Strain/Indicator: TA1535, Metabolic Activation: HAMSTER, LIVER, S-9, AROCLOR 1254 (10%), Method: PREINCUBATION
# [8] = Test System: AMES SALMONELLA TYPHIMURIUM, Strain/Indicator: TA1535, Metabolic Activation: NONE, Method: PREINCUBATION
# [9] = Test System: AMES SALMONELLA TYPHIMURIUM, Strain/Indicator: TA1535, Metabolic Activation: RAT, LIVER, S-9, AROCLOR 1254 (10%), Method: PREINCUBATION
# [10] = Test System: AMES SALMONELLA TYPHIMURIUM, Strain/Indicator: TA1537, Metabolic Activation: HAMSTER, LIVER, S-9, AROCLOR 1254 (10%), Method: PREINCUBATION
# [11] = Test System: AMES SALMONELLA TYPHIMURIUM, Strain/Indicator: TA1537, Metabolic Activation: NONE, Method: PREINCUBATION
# [12] = Test System: AMES SALMONELLA TYPHIMURIUM, Strain/Indicator: TA1537, Metabolic Activation: RAT, LIVER, S-9, AROCLOR 1254 (10%), Method: PREINCUBATION
smiles,measurement,setting,value
CCCCCCOC(=O)c1ccccc1C(=O)OCCCCCC,mutagenic call,[1],inactive; negative
same,mutagenic call,[2],inactive; negative
same,mutagenic call,[3],inactive; negative
same,mutagenic call,[4],inactive; negative
same,mutagenic call,[5],inactive; negative
same,mutagenic call,[6],inactive; negative
same,mutagenic call,[7],inactive; negative
same,mutagenic call,[8],inactive; negative
same,mutagenic call,[9],inactive; negative
same,mutagenic call,[10],inactive; negative
same,mutagenic call,[11],inactive; negative
same,mutagenic call,[12],inactive; negative
O=C1OC(c2ccc(O)cc2)(c2ccc(O)cc2)c2ccccc21,mutagenic call,"End Point: In vivo micronucleus, Test System: Peripheral blood normochromatic erythrocytes, Species: Mouse, Strain/Sex: Haploinsufficient p16(Ink4a)p19(Arf), Route: Oral",active; positive
same,mutagenic call,"End Point: In vivo micronucleus, Test System: Polychromatic erythrocytes, Species: Mouse, Strain/Sex: C57BL/6TacBr-[KO]p53[TSG-p53], Route: Oral",active; positive at all days
same,mutagenic call,[1],inactive; negative
same,mutagenic call,[2],inactive; negative
same,mutagenic call,[3],inactive; negative
same,mutagenic call,[4],inactive; negative
same,mutagenic call,[5],inactive; negative
same,mutagenic call,[6],inactive; negative
same,mutagenic call,[7],inactive; negative
same,mutagenic call,[8],inactive; negative
same,mutagenic call,[9],inactive; negative
same,mutagenic call,[10],inactive; negative
same,mutagenic call,[11],inactive; negative
same,mutagenic call,[12],inactive; negative
same,mutagenic call,"Test System: Syrian hamster embryo cells, Strain/Indicator: HPRT/6-thioguanine, Method: Plate",active; positive
C=CC1(C)OC(=O)N(c2cc(Cl)cc(Cl)c2)C1=O (stereo not drawn),mutagenic call,"End Point: IN VITRO MICRONUCLEUS, Test System: HUMAN HEPATOMA CELLS HEPG2, Metabolic Activation: NONE",inactive; negative; authors report a slight increase but not statistically significant
C[C@]12CCC(=O)C=C1CC[C@@H]1[C@@H]2CC[C@]2(C)C(=O)CC[C@@H]12,mutagenic call,"End Point: In vivo micronucleus, Test System: Micronucleated bone marrow polychromatic erythrocytes, Species: Rat, Strain/Sex: F344/N / Male, Route: Oral",inactive; negative
same,mutagenic call,"End Point: In vivo micronucleus, Test System: Micronucleated normochromatic erythrocytes in peripheral blood, Species: Mouse, Strain/Sex: B6C3F1/Female, Route: Oral",inactive; negative. (the response was judged equivocal based on a statistically significan
same,mutagenic call,"End Point: In vivo micronucleus, Test System: Micronucleated normochromatic erythrocytes in peripheral blood, Species: Mouse, Strain/Sex: B6C3F1/Male, Route: Oral",inactive; negative
same,mutagenic call,"Test System: Ames Salmonella typhimurium, Strain/Indicator: TA97, Metabolic Activation: Hamster, Liver, S-9, Aroclor 1254 (10%), Method: Preincubation",inactive; negative
same,mutagenic call,"Test System: Ames Salmonella typhimurium, Strain/Indicator: TA97, Metabolic Activation: Hamster, Liver, S-9, Aroclor 1254 (30%), Method: Preincubation",inactive; negative
same,mutagenic call,"Test System: Ames Salmonella typhimurium, Strain/Indicator: TA97, Metabolic Activation: None, Method: Preincubation",inactive; negative
same,mutagenic call,"Test System: Ames Salmonella typhimurium, Strain/Indicator: TA97, Metabolic Activation: Rat, Liver, S-9, Aroclor 1254 (10%), Method: Preincubation",inactive; negative
same,mutagenic call,"Test System: Ames Salmonella typhimurium, Strain/Indicator: TA97, Metabolic Activation: Rat, Liver, S-9, Aroclor 1254 (30%), Method: Preincubation",inactive; negative
same,mutagenic call,"Test System: Ames Salmonella typhimurium, Strain/Indicator: TA98, Metabolic Activation: Hamster, Liver, S-9, Aroclor 1254 (10%), Method: Preincubation",inactive; negative
same,mutagenic call,"Test System: Ames Salmonella typhimurium, Strain/Indicator: TA98, Metabolic Activation: Hamster, Liver, S-9, Aroclor 1254 (30%), Method: Preincubation",inactive; negative
same,mutagenic call,"Test System: Ames Salmonella typhimurium, Strain/Indicator: TA98, Metabolic Activation: None, Method: Preincubation",inactive; negative
same,mutagenic call,"Test System: Ames Salmonella typhimurium, Strain/Indicator: TA98, Metabolic Activation: Rat, Liver, S-9, Aroclor 1254 (10%), Method: Preincubation",inactive; negative
same,mutagenic call,"Test System: Ames Salmonella typhimurium, Strain/Indicator: TA98, Metabolic Activation: Rat, Liver, S-9, Aroclor 1254 (30%), Method: Preincubation",inactive; negative
same,mutagenic call,"Test System: Ames Salmonella typhimurium, Strain/Indicator: TA100, Metabolic Activation: Hamster, Liver, S-9, Aroclor 1254 (10%), Method: Preincubation",inactive; negative
same,mutagenic call,"Test System: Ames Salmonella typhimurium, Strain/Indicator: TA100, Metabolic Activation: Hamster, Liver, S-9, Aroclor 1254 (30%), Method: Preincubation",inactive; negative
same,mutagenic call,"Test System: Ames Salmonella typhimurium, Strain/Indicator: TA100, Metabolic Activation: None, Method: Preincubation",inactive; negative
same,mutagenic call,"Test System: Ames Salmonella typhimurium, Strain/Indicator: TA100, Metabolic Activation: Rat, Liver, S-9, Aroclor 1254 (10%), Method: Preincubation",inactive; negative
same,mutagenic call,"Test System: Ames Salmonella typhimurium, Strain/Indicator: TA100, Metabolic Activation: Rat, Liver, S-9, Aroclor 1254 (30%), Method: Preincubation",inactive; negative
same,mutagenic call,"Test System: Ames Salmonella typhimurium, Strain/Indicator: TA1535, Metabolic Activation: Hamster, Liver, S-9, Aroclor 1254 (10%), Method: Preincubation",inactive; negative
same,mutagenic call,"Test System: Ames Salmonella typhimurium, Strain/Indicator: TA1535, Metabolic Activation: Hamster, Liver, S-9, Aroclor 1254 (30%), Method: Preincubation",inactive; negative
same,mutagenic call,"Test System: Ames Salmonella typhimurium, Strain/Indicator: TA1535, Metabolic Activation: None, Method: Preincubation",inactive; negative
same,mutagenic call,"Test System: Ames Salmonella typhimurium, Strain/Indicator: TA1535, Metabolic Activation: Rat, Liver, S-9, Aroclor 1254 (10%), Method: Preincubation",inactive; negative
same,mutagenic call,"Test System: Ames Salmonella typhimurium, Strain/Indicator: TA1535, Metabolic Activation: Rat, Liver, S-9, Aroclor 1254 (30%), Method: Preincubation",inactive; negative
same,mutagenic call,"Test System: E. coli, Strain/Indicator: WP2 uvrA/pKM101, Metabolic Activation: None, Method: Preincubation",inactive; negative
same,mutagenic call,"Test System: E. coli, Strain/Indicator: WP2 uvrA/pKM101, Metabolic Activation: Rat, Liver, S-9, Aroclor 1254 (10%), Method: Preincubation",inactive; negative
COc1ccc2nc(N)[nH]c2c1,mutagenic call,"Test System: AMES SALMONELLA TYPHIMURIUM, Strain/Indicator: TA98, Metabolic Activation: RAT, LIVER, S-9, AROCLOR 1254, Method: PREINCUBATION",inactive; negative
same,mutagenic call,"Test System: AMES SALMONELLA TYPHIMURIUM, Strain/Indicator: TA100, Metabolic Activation: RAT, LIVER, S-9, AROCLOR 1254, Method: PREINCUBATION",inactive; negative
CC(=O)ON(C(C)=O)c1ccc(Sc2ccccc2)cc1,mutagenic call,"Test System: AMES SALMONELLA TYPHIMURIUM, Strain/Indicator: TA98(1,8-DNP6), Metabolic Activation: NONE, Method: STANDARD PLATE",active; positive
same,mutagenic call,"Test System: AMES SALMONELLA TYPHIMURIUM, Strain/Indicator: TA98, Metabolic Activation: NONE, Method: STANDARD PLATE",active; positive
same,mutagenic call,"Test System: AMES SALMONELLA TYPHIMURIUM, Strain/Indicator: TA98, Metabolic Activation: RAT, LIVER, S-9, AROCLOR 1254, Method: STANDARD PLATE",active; positive
